According to ChEMBL document CHEMBL1909046, “DrugMatrix in vitro pharmacology data”:

Experiments:
[1] = DRUGMATRIX: Platelet-Derived Growth Factor (PDGF) radioligand binding (ligand: [125I] PDGF); type: cell-based; conditions: nih3t3; Not Active = under 50% inhibition at 10 µM
Vasopressin V1a receptor = Vasopressin V1a receptor (Homo sapiens, UniProt P37288); type: cell membranes, Membrane; conditions: hek293; also: in other assays of this panel Not Active means under 50% inhibition at 10 µM
[2] = DRUGMATRIX: Sodium/nucleoside co-transporter radioligand binding (ligand: nitrobenzylthioinosine); type: cell membranes, Cavia porcellus, Dunkin-Hartley, Cerebral cortex, Membrane; conditions: Not Active = under 50% inhibition at 10 µM
[3] = DRUGMATRIX: Interleukin IL-1 radioligand binding (ligand: [125I] interleukin 1beta); type: cell membranes, Membrane; conditions: nih3t3; Not Active = under 50% inhibition at 10 µM
Cytochrome P450 2D6 = Cytochrome P450 2D6 (Homo sapiens, UniProt P10635); conditions: bti-tn-5b1-4; also: in other assays of this panel Not Active means under 50% inhibition at 10 µM
Estrogen receptor beta = Estrogen receptor beta (Homo sapiens, UniProt Q92731); conditions: sf9; also: in other assays of this panel Not Active means under 50% inhibition at 10 µM
[4] = DRUGMATRIX: Glutamate, Kainate radioligand binding (ligand: [3H] Kainic acid); type: cell membranes, Rattus norvegicus, Wistar, Brain, Membrane; conditions: Not Active = under 50% inhibition at 10 µM
[5] = DRUGMATRIX: Sigma2 radioligand binding (ligand: [3H] Ifenprodil); type: cell membranes, Rattus norvegicus, Wistar, Brain, Membrane; conditions: Not Active = under 50% inhibition at 10 µM
Nitric oxide synthase 1 = Nitric oxide synthase 1 (Rattus norvegicus, UniProt P29476); type: tissue-based, Cerebellum; also: in other assays of this panel Not Active means under 50% inhibition at 10 µM
Nitric oxide synthase 1, sequence (P29476 whole entry): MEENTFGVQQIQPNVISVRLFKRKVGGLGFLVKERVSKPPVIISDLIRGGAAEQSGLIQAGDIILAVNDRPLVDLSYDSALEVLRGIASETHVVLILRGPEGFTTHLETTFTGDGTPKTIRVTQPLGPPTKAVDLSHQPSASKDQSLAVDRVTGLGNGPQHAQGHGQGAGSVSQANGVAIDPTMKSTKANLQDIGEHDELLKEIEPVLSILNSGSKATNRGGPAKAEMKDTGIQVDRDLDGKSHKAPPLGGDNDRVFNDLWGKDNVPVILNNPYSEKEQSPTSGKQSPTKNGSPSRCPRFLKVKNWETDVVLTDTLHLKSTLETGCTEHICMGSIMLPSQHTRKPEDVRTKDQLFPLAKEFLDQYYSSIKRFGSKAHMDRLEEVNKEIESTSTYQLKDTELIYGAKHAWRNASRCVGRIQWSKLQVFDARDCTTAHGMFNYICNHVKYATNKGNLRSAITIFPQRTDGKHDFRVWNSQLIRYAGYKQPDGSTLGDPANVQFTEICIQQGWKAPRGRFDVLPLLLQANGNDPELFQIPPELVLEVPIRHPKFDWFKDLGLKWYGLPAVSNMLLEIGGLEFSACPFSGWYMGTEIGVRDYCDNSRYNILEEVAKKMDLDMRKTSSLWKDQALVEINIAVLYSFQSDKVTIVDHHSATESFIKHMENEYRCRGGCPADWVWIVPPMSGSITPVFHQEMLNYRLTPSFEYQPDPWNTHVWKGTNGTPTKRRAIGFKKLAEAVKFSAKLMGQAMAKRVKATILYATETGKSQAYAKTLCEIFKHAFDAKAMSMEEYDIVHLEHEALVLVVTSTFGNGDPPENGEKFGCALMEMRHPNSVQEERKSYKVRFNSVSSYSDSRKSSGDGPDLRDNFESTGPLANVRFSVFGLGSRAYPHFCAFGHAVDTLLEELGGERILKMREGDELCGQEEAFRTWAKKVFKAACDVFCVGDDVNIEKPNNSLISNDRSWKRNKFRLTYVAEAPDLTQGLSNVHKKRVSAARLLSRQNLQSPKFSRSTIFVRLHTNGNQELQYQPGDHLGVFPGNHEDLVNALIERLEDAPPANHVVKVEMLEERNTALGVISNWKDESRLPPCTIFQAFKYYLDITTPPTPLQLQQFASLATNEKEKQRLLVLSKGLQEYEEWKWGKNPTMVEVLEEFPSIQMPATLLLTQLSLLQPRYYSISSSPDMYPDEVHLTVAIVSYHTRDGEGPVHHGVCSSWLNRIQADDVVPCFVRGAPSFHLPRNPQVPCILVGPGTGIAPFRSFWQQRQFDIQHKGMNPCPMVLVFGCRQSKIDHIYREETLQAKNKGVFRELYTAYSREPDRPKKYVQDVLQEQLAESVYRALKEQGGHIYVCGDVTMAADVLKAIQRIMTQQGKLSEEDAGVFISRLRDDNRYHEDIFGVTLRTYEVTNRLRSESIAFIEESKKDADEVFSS

Cytochrome P450 2D6, sequence (P10635 whole entry): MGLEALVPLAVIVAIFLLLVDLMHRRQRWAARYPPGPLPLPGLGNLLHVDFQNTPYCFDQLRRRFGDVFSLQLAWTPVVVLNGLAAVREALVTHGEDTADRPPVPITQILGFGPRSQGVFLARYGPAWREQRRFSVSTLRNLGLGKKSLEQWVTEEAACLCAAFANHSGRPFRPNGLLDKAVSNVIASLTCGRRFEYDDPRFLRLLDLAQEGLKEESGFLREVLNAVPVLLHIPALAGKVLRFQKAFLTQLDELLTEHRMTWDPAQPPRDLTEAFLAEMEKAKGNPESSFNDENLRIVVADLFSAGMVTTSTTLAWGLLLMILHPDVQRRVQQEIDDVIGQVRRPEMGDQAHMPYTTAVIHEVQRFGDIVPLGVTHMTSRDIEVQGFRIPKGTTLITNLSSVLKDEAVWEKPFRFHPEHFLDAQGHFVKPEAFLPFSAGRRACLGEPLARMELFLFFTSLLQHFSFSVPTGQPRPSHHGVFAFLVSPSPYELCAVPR
Estrogen receptor beta, sequence (Q92731 whole entry): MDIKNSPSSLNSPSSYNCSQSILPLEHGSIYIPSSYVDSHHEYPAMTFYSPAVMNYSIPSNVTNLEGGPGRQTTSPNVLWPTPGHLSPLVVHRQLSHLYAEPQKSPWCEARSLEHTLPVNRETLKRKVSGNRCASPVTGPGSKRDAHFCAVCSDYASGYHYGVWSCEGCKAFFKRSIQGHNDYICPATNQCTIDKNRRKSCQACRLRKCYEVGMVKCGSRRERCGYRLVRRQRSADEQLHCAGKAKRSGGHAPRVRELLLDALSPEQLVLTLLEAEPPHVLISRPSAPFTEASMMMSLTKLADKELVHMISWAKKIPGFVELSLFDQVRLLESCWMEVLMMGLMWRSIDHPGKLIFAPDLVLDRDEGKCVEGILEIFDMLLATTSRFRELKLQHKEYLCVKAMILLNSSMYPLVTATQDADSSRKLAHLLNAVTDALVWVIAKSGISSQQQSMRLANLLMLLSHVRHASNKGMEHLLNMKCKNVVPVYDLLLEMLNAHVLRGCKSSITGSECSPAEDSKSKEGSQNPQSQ
Vasopressin V1a receptor, sequence (P37288 whole entry): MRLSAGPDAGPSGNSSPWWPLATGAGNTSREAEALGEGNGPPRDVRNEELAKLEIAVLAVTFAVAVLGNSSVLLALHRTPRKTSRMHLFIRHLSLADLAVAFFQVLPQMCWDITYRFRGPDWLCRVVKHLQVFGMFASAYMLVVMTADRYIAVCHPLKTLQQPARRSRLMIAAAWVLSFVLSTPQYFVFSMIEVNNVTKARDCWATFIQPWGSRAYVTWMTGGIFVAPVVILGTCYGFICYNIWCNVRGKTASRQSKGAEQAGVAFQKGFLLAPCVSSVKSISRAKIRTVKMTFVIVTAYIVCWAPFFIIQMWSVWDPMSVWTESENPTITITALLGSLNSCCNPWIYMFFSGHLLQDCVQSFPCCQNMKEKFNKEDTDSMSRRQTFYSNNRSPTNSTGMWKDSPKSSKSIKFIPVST

Oc1ncnc2[nH]ncc12 [ALLOPURINOL]
Not Active: IC50 [1] | Ki [1] | IC50 (Vasopressin V1a receptor) | IC50 [2] | Ki [2] | IC50 [3] | Ki [3] | IC50 (Cytochrome P450 2D6) | Ki (Cytochrome P450 2D6) | IC50 (Estrogen receptor beta) | IC50 [4] | Ki [4] | IC50 [5] | Ki [5] | IC50 (Nitric oxide synthase 1)

C[C@@H]1[C@H](O)[C@@H](C)/C=C/C=C/C=C/C=C/C=C/C=C/C=C/[C@H](O[C@@H]2O[C@H](C)[C@@H](O)[C@H](N)[C@@H]2O)C[C@@H]2O[C@](O)(C[C@@H](O)C[C@@H](O)[C@H](O)CC[C@@H](O)C[C@@H](O)CC(=O)O[C@H]1C)C[C@H](O)[C@H]2C(=O)O [AMPHOTERICIN B]
Not Active: IC50 [1] | Ki [1] | IC50 (Vasopressin V1a receptor) | IC50 [2] | Ki [2] | IC50 [3] | Ki [3] | IC50 (Cytochrome P450 2D6) | Ki (Cytochrome P450 2D6) | IC50 (Estrogen receptor beta) | IC50 [4] | Ki [4] | IC50 [5] | Ki [5] | IC50 (Nitric oxide synthase 1)

CCO [ALCOHOL]
Not Active: IC50 [1] | Ki [1] | IC50 (Vasopressin V1a receptor) | IC50 [2] | Ki [2] | IC50 [3] | Ki [3] | IC50 (Cytochrome P450 2D6) | Ki (Cytochrome P450 2D6) | IC50 (Estrogen receptor beta) | IC50 [4] | Ki [4] | IC50 [5] | Ki [5] | IC50 (Nitric oxide synthase 1)

COc1cc(/C=C/C(=O)O)ccc1O [FERULATE]
Not Active: IC50 [1] | Ki [1] | IC50 (Vasopressin V1a receptor) | IC50 [2] | Ki [2] | IC50 [3] | Ki [3] | IC50 (Cytochrome P450 2D6) | Ki (Cytochrome P450 2D6) | IC50 (Estrogen receptor beta) | IC50 [4] | Ki [4] | IC50 [5] | Ki [5] | IC50 (Nitric oxide synthase 1)

CC1(COc2ccc(CC3SC(=O)NC3=O)cc2)CCCCC1 (stereo not given) [CIGLITAZONE]
Not Active: IC50 [1] | Ki [1] | IC50 (Vasopressin V1a receptor) | IC50 [2] | Ki [2] | IC50 [3] | Ki [3] | IC50 (Cytochrome P450 2D6) | Ki (Cytochrome P450 2D6) | IC50 (Estrogen receptor beta) | IC50 [4] | Ki [4] | IC50 [5] | Ki [5] | IC50 (Nitric oxide synthase 1)

Nc1nc(F)nc2c1ncn2[C@@H]1O[C@H](CO)[C@@H](O)[C@@H]1O [FLUDARABINE]
Not Active: IC50 [1] | Ki [1] | IC50 (Vasopressin V1a receptor) | IC50 [2] | Ki [2] | IC50 [3] | Ki [3] | IC50 (Cytochrome P450 2D6) | Ki (Cytochrome P450 2D6) | IC50 (Estrogen receptor beta) | IC50 [4] | Ki [4] | IC50 [5] | Ki [5] | IC50 (Nitric oxide synthase 1)

NC(=O)NC(=O)Cc1ccccc1 [PHENACEMIDE]
Not Active: IC50 [1] | Ki [1] | IC50 (Vasopressin V1a receptor) | IC50 [2] | Ki [2] | IC50 [3] | Ki [3] | IC50 (Cytochrome P450 2D6) | Ki (Cytochrome P450 2D6) | IC50 (Estrogen receptor beta) | IC50 [4] | Ki [4] | IC50 [5] | Ki [5] | IC50 (Nitric oxide synthase 1)

NC(=O)CN1CCCC1=O
Not Active: IC50 [1] | Ki [1] | IC50 (Vasopressin V1a receptor) | IC50 [2] | Ki [2] | IC50 [3] | Ki [3] | IC50 (Cytochrome P450 2D6) | Ki (Cytochrome P450 2D6) | IC50 (Estrogen receptor beta) | IC50 [4] | Ki [4] | IC50 [5] | Ki [5] | IC50 (Nitric oxide synthase 1)

Clc1cc(Cl)c(OCC#CI)cc1Cl [HALOPROGIN]
Not Active: IC50 [1] | Ki [1] | IC50 (Vasopressin V1a receptor) | IC50 [2] | Ki [2] | IC50 [3] | Ki [3] | IC50 (Cytochrome P450 2D6) | Ki (Cytochrome P450 2D6) | IC50 (Estrogen receptor beta) | IC50 [4] | Ki [4] | IC50 [5] | Ki [5] | IC50 (Nitric oxide synthase 1)

O=C(NCCN1CCOCC1)c1ccc(Cl)cc1 [MOCLOBEMIDE]
Not Active: IC50 [1] | Ki [1] | IC50 (Vasopressin V1a receptor) | IC50 [2] | Ki [2] | IC50 [3] | Ki [3] | IC50 (Cytochrome P450 2D6) | Ki (Cytochrome P450 2D6) | IC50 (Estrogen receptor beta) | IC50 [4] | Ki [4] | IC50 [5] | Ki [5] | IC50 (Nitric oxide synthase 1)
